Measured values taken from patent publication US20070065443A1, “Fructoseamine 3 kinase and the formation of collagen and elastin” (priority 2004, published 2007).
“And” between values parts separate entries of the source, which are not always exact repeats. Equal values may be shown once.

Columns and labels:
[1] = test system: 3DG; assay: Plasma 3DG levels in diabetic and non-diabetic rats treated with 3-O-methyl sorbitollysine; assay type: in vivo, rat; details: for plasma 3DG level: 50 mg/kg body weight injections, within one week
Method: A cohort of twelve diabetic rats was divided into two groups of six. The first group received saline-only injections, and the second received injections of 3-O-methyl sorbitollysine (50 mg/kg body weight) in saline solution. The same procedure was conducted on a cohort of twelve non-diabetic rats.

[2] = target: T1, fructoseamine kinase (Homo sapiens, UniProt Q9H479); assay: Fructoseamine kinase inhibition (Ki); assay type: biochemical
T1 sequence (Q9H479 1-309): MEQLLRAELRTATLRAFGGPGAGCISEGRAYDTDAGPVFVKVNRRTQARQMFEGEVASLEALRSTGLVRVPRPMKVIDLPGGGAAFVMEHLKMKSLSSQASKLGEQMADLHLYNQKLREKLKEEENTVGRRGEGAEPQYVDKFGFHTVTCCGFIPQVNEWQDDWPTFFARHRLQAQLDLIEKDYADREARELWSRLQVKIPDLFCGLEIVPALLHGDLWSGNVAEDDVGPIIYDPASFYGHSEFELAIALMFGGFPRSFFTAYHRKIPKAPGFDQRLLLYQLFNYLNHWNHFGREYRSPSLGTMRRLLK

[3] = Distribution of DYN-12 in plasma, urine and kidney; assay type: in vivo, rat; details: individual rats, 100 micromols i.p.
Method: Rats were injected intraperitoneally with 1 ml of a 100 mM solution of DYN-12 (100 micromols). Urine was collected for 1 hr, and DYN-12 levels measured. After 1 hr the animals were sacrificed and DYN-12 levels measured in both plasma and kidney tissue.

[4] = Locus of 3-O-methyl sorbitollysine uptake in vivo (tissue, urine, plasma); design: species or system rat
Method: […] Urine was collected for 3 hours, after which the rats were sacrificed. The tissues to be analyzed were removed and freeze clamped in liquid nitrogen. Perchloric acid extracts of the tissues were used for metabolite analysis. The tissues examined were taken from the brain, heart, muscle, sciatic nerve, spleen, pancreas, liver, and kidney. Plasma was also analyzed.

[5] = test system: STZ-diabetic rats; assay: Skin elasticity measurement (vacuum pull to displace skin); assay type: in vivo, rat; details: 50 mg/kg daily s.c. for eight weeks
Method: Experiments were performed to determine the effects of DYN 12 on the loss of skin elasticity associated with diabetes. To this end, two groups of STZ-diabetic rats and two groups of normal rats were subjected to treatment with DYN 12 or saline. One 'group of STZ-diabetic rats (n=9) received daily subcutaneous injections of DYN 12 at 50 mg/kg for eight weeks, as did one group of normal rats (n=6). A group of control diabetic rats (n=10) and a group of normal rats (n=6) received saline instead of DYN 12. One rat was removed from the diabetic DYN 12 group after 2 weeks because its blood glucose readings were inconsistent (too low) with other diabetic rats.
A non-invasive procedure based on CyberDERM, Inc. technology utilizing a skin elasticity measurement device was used to test the effects of DYN 12 treatment on skin elasticity. The procedure provides for non-invasive measurement of skin elasticity based upon the amount of vacuum pull required to displace skin. A suction cup probe is adhered to an area of shaved skin in order to form an airtight seal. Then, a vacuum is applied to the area of the skin inside the suction cup until the skin is displaced past a sensor located inside the probe. Accordingly, the more pressure that is required to displace the skin, the less elastic the skin is.

Ki [2]: 2000 to 3000 µM | presence of the compound in plasma ([4]; 3 hours after i.p. injection): plasma did not
SMILES: COC(C(O)CNCCCCC(N)C(=O)O)C(O)C(O)CO (stereo not drawn) [DYN 12, 3-O-methylsorbitollysine]
% Reduction of plasma 3DG vs saline only ([1]; diabetic rats): 53% | plasma 3DG level ([1]; diabetic rats): 0.44 ± 0.10 µM | % Reduction of plasma 3DG vs saline only ([1]; non-diabetic rats): 43% | plasma 3DG level ([1]; non-diabetic rats): 0.13 ± 0.02 µM | DYN-12 concentration Kidney ([3]; 1 hr): 6.54 µmol/g and 9.19 µmol/g and 8.21 µmol/g | DYN-12 concentration Plasma ([3]; 1 hr): 0.335 µmol/mL and 0.269 µmol/mL and 0.296 µmol/mL | DYN-12 concentration Urine ([3]; urine collected 1 hr): 41.99 µmol/mL and 17.81 µmol/mL and 15.03 µmol/mL | tissue extracts containing the compound ([4]; brain, heart, muscle, sciatic nerve, spleen, pancreas, liver, kidney examined, 3 hours): only tissue extract found to contain 3-O-methyl sorbitollysine was that of the kidney | nmols 3OMeSL in kidneys ([4]; individual rats, 13500 nmols i.p., 3 hours, listed as 3OMeSL): 8155 nmols and 3880 nmols and 10071 nmols and 6582 nmols and 5373 nmols and 4833 nmols | nmols 3OmeSL in urine ([4]; individual rats, 13500 nmols i.p., urine collected 3 hours, listed as 3OMeSL): 4200 nmols and 1355 nmols and 2940 nmols and 1675 nmols and 1778 nmols and 2360 nmols | % 3OMeSL recovered (of injected dose, urine and kidney) ([4]; individual rats, 3 hours after i.p. injection, listed as 3OMeSL): 91.5% and 38.8% and 96.4% and 61.2% and 53.0% and 53.3% | total 3OMeSL recovered ([4]; individual rats, urine plus kidneys, 3 hours, listed as 3OMeSL): 12355 nmols and 5235 nmols and 13011 nmols and 8257 nmols and 7151 nmols and 7193 nmols | pressure needed to displace the skin [5]: 3.2+/−1.2 kPA
